Source: patent US7413895B2, “DNA encoding neutral amino acid transporter” (Japan Science and Technology Corporation, priority 1998, dated 2008)
Entries after “also recorded” stand apart in the source; their conditions may differ.

How the values were obtained:
[1] = molecular target: T1, human amino acid transporter LAT1 (Homo sapiens, UniProt Q01650); experiment: Incorporation of 14C-labeled amino acids into oocytes co-expressing human LAT1 and human 4F2hc; type: cell-based; design: expressed in transfected cells; conditions: for incorporation in a cell in which human LAT1 and human 4F2hc are co-expressed: summary statement of the disclosure; for incorporation of 14C-labeled amino acid into oocytes: oocytes co-expressing human LAT1 and human 4F2hc, 14C-labeled substrate 50 μM, 30 minutes
T1 sequence (Q01650 whole entry): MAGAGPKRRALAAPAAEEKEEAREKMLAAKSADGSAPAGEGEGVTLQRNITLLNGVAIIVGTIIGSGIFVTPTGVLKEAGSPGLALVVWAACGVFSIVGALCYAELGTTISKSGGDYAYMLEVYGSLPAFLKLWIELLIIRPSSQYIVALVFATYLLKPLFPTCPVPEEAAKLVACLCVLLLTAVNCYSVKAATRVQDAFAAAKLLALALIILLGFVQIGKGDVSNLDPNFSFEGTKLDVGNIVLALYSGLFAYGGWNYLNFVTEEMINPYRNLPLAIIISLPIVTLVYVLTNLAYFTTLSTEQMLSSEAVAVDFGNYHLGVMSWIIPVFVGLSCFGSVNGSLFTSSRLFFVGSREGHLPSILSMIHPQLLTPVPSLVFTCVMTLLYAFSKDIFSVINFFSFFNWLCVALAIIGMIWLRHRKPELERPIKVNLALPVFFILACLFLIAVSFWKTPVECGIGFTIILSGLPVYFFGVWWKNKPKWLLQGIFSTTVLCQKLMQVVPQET
T1 sequence (as listed by the source partner): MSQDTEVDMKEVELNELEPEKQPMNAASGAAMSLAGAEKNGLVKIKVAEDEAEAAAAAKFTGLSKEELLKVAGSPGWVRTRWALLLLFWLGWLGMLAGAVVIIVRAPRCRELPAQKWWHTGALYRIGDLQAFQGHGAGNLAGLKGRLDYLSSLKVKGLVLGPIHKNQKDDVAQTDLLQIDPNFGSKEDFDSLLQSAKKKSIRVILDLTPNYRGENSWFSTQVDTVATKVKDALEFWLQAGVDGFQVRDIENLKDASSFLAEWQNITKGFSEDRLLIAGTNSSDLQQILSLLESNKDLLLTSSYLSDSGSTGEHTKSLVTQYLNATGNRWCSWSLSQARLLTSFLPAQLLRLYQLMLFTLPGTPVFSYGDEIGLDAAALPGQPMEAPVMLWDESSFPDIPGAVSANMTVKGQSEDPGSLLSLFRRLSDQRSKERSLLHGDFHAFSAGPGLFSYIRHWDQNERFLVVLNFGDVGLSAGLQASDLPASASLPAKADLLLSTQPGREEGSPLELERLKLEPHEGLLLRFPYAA

[2] = molecular target: T1, human amino acid transporter LAT1; experiment: Competitive antagonism test: incorporation of 14C-labeled leucine or phenylalanine into oocytes co-expressing human LAT1 and human 4F2hc in the presence of test substance; type: cell-based; design: expressed in transfected cells; conditions: test substance 2 mM, 30 minutes; for inhibition of incorporation of 14C-labeled leucine mediated by the human LAT1: 14C-labeled leucine 20 μM, choline chloride uptake solution
[3] = tested on: T24 cells derived from human bladder cancer; experiment: Inhibition of 14C-leucine incorporation by T24 cells by amino acids and similar substances; type: cell-based; conditions: 14C-leucine 20 μM, 2 mM unlabeled compound
[4] = molecular target: T2, rat neutral amino acid transporter LAT1 (Rattus norvegicus, UniProt Q63016); experiment: Inhibition of 14C-leucine incorporation into oocytes injected with rat LAT1 and rat 4F2hc cRNA by amino acids and similar substances; type: cell-based; design: expressed in transfected cells; host or cells: oocytes (Xenopus laevis by the cited method of Kanai and Hediger) injected with rat LAT1 cRNA and rat 4F2hc cRNA; conditions: rat LAT1/rat 4F2hc oocytes; 14C-leucine 20 μM, 2 mM unlabeled compound, choline uptake solution
T2 sequence (Q63016 whole entry): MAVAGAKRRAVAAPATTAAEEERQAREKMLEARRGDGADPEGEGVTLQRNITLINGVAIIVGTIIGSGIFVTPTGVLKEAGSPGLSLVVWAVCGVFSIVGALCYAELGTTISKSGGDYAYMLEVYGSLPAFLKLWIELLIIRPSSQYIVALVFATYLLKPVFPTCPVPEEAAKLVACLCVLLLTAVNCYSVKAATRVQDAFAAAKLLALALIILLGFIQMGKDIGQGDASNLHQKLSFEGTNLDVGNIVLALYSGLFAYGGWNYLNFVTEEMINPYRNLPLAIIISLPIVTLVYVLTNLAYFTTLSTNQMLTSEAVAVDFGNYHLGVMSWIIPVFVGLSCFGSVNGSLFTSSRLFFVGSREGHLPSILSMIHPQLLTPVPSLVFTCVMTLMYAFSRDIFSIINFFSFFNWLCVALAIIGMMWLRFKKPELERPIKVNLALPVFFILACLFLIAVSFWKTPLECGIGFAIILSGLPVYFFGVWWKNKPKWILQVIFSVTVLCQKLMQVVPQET
T2 sequence (Q794F9 whole entry partner): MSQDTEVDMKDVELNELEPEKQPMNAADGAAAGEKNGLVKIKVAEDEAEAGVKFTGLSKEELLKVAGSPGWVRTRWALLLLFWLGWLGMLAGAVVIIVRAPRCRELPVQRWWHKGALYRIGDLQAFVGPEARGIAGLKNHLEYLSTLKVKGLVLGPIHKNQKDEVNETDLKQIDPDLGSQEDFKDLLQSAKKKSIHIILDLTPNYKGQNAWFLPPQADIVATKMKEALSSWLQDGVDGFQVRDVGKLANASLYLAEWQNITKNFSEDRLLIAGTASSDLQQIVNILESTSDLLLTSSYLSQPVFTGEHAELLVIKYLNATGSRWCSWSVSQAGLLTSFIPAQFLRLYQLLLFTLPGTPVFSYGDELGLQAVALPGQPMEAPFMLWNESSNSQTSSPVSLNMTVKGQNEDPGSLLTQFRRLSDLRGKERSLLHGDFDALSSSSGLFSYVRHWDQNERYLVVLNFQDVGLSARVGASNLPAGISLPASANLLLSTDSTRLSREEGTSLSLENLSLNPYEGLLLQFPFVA

[5] = molecular target: T2, rat neutral amino acid transporter LAT1; experiment: Incorporation of radiolabeled amino acids into oocytes injected with rat LAT1 and rat 4F2hc cRNA; type: cell-based; design: expressed in transfected cells; host or cells: oocytes (Xenopus laevis by the cited method of Kanai and Hediger) injected with rat LAT1 cRNA and rat 4F2hc cRNA; conditions: 14C compounds as substrates
Procedure: Thus, the oocytes into which rat LAT1 gene cRNA, rat 4F2hc gene cRNA or rat LAT1 gene cRNA/rat 4F2hc gene cRNA was injected were incubated for 30 minutes in an uptake solution containing ^14C-leucine (50 μM) and incorporation of radioactivity into the oocytes was measured.
As a substrate however, various radiolabeled compounds were used in place of ^14C-leucine.

[6] = tested on: T24 cells derived from human bladder cancer; experiment: Michaelis-Menten kinetic test for the incorporation of leucine by T24 cells; type: cell-based; conditions: leucine as substrate
Procedure: T24 cells derived from human bladder cancer were incubated and maintained in an Eagle's minimal essential medium containing 10% of fetal bovine serum. A test for the incorporation of amino acids into T24 cells was carried out by incubating the T24 cells on a 24-well plate and finished when the state became confluent. The amino acid incorporation test was started by removing the incubating solution and adding a Dulbecco's PBS (manufactured by Gibco) containing ^14C-amino acid and finished by removing it, cooling with ice and washing with a Dulbecco's PBS. After washing, the above was dissolved in 0.1N NaOH and the radioactivity was measured by a liquid scintillation counter.
A Michaelis-Menten kinetic test was carried out for the incorporation of leucine by T24 cells. The Michaelis-Menten kinetic test was conducted by investigating the changes in the incorporated rate of leucine by the difference in the concentration of the substrate leucine.

[7] = molecular target: T2, rat neutral amino acid transporter LAT1; conditions: read-out: Km value; leucine as substrate; oocytes injected with rat LAT1 and rat 4F2hc cRNA
[8] = molecular target: T1, human amino acid transporter LAT1; conditions: read-out: Michaelis constant (Km); leucine as substrate; Xenopus laevis oocytes co-expressing human LAT1 and human 4F2hc
[9] = tested on: Mouse sarcoma 180 cells; experiment: Survival of ICR mouse after intraperitoneal transplantation of mouse sarcoma 180 cells; type: in vivo; conditions: male ICR mouse, sarcoma 180 cells intraperitoneally transplanted, 300 mg/kg for ten days, observation for 19 days
Procedure: Mouse sarcoma 180 cells were intraperitoneally transplanted (1×10^6) to male ICR mouse and, from the next day of the transplantation, BCH which was a inhibitor for the amino acid transporter, D-Leu having a inhibiting effect on amino acid transporter and D-Ala having no inhibiting action thereon were administered at the dose of 300 mg/kg for ten days. After the transplantation, it was confirmed every day whether the mouse was dead or alive.

[10] = tested on: rat liver cell line where LAT1 was highly expressed; experiment: Cell proliferation of cultured rat liver cell line, Cell Counting Kit-8; type: cell-based; conditions: 20 mM added to William's medium, incubation for 48 hours
Procedure: A rat liver cell line where LAT1 was highly expressed was incubated on a William's medium, 20 mM of D-leucine or BCH which suppressed the incorporation mediated by LAT1 were added to the medium and, by means of an incubation for 48 hours, cell numbers were investigated using a Cell Counting Kit-8 (manufactured by Dojindo Laboratories). The cell numbers were measured as an absorption at 450 nm (O.D. 450).

Compound	incorporation in a cell in which human LAT1 and human 4F2hc are co-expressed [1]	inhibition of incorporation of 14C-leucine mediated by LAT1 [4]	inhibition of incorporation of 14C-leucine by T24 cells [3]	incorporation of 14C-labeled amino acid into oocytes [1]	incorporation of radiolabeled substrate into the oocytes [5]	inhibition of incorporation of 14C-labeled leucine mediated by the human LAT1 [2]	also measured
N[C@@H](Cc1ccc(O)c(O)c1)C(=O)O [L-DOPA]	confirmed	–	–	–	–	–	inhibition of incorporation of 14C-labeled phenylalanine into oocytes ([2]; 14C-labeled phenylalanine instead of leucine, choline uptake solution): strongly inhibited
N[C@@H](Cc1ccc(N(CCCl)CCCl)cc1)C(=O)O [melphalan]	–	inhibited	–	–	–	–	–
C[C@@H](N)C(=O)O [D-Ala]	–	–	–	–	–	–	survival effect [9]: No survival effect
NC(=O)CC[C@H](N)C(=O)O [glutamine]	significant incorporation	–	–	–	–	–	–
N=C(N)NCCC[C@H](N)C(=O)O [arginine]	–	–	–	–	–	not affected at all	–
N[C@@H](Cc1cc(I)c(Oc2cc(I)c(O)c(I)c2)c(I)c1)C(=O)O [thyroxin]	–	inhibited	–	–	–	–	–
CSCC[C@H](N)C(=O)O [methionine]	very strong incorporation	strongly inhibited	strong cis-inhibiting effect	significantly incorporated	incorporation into the oocytes was noted	strongly inhibited	–
N[C@@H](Cc1c[nH]c2ccccc12)C(=O)O [tryptophan]	very strong incorporation	strongly inhibited	strong cis-inhibiting effect	significantly incorporated	incorporation into the oocytes was noted	strongly inhibited	–
N[C@@H](Cc1ccccc1)C(=O)O [phenylalanine]	very strong incorporation	strongly inhibited	strong cis-inhibiting effect	significantly incorporated	incorporation into the oocytes was noted	strongly inhibited	–
N[C@@H](Cc1c[nH]cn1)C(=O)O [histidine]	very strong incorporation	strongly inhibited	strong cis-inhibiting effect	significantly incorporated	incorporation into the oocytes was noted	strongly inhibited	–
CC(C)C[C@@H](N)C(=O)O [D-leucine]	–	–	–	incorporated	–	–	survival effect [9]: significant survival effect; cell numbers (O.D. 450) compared with control group [10]: a reduction in the cell numbers was noted
N[C@@H](CC(=O)O)C(=O)O [aspartic acid]	–	–	–	–	–	not affected at all	–
N[C@H](Cc1ccccc1)C(=O)O [D-phenylalanine]	–	–	–	incorporated	–	–	–
N[C@@H](Cc1ccc(O)cc1)C(=O)O [tyrosine]	very strong incorporation	strongly inhibited	strong cis-inhibiting effect	significantly incorporated	incorporation into the oocytes was noted	strongly inhibited	–
N[C@@H](CCC(=O)O)C(=O)O [glutamic acid]	–	–	–	–	–	not affected at all	–
NCCCC[C@H](N)C(=O)O [lysine]	–	–	–	–	–	not affected at all	–

Continued, in another order:

incorporation in a cell in which human LAT1 and human 4F2hc are co-expressed [1]	inhibition of incorporation of 14C-leucine mediated by LAT1 [4]	Compound	inhibition of incorporation of 14C-leucine by T24 cells [3]	incorporation of 14C-labeled amino acid into oocytes [1]	incorporation of radiolabeled substrate into the oocytes [5]	inhibition of incorporation of 14C-labeled leucine mediated by the human LAT1 [2]	also measured
very strong incorporation	strongly inhibited	CC(C)[C@H](N)C(=O)O [valine]	strong cis-inhibiting effect	significantly incorporated	incorporation into the oocytes was noted	strongly inhibited	–
very strong incorporation	strongly inhibited	CC(C)C[C@H](N)C(=O)O [leucine]	strong cis-inhibiting effect	large incorporation; also recorded: significantly incorporated	big incorporation; also recorded: incorporation into the oocytes was noted	strongly inhibited	Km [6]: 100 µM; Vmax value of leucine incorporation [6]: 23,870 pmol/mg protein/minute; Km [7]: ~24 µM; Km [8]: ~21 µM
significant incorporation	–	C[C@@H](O)[C@H](N)C(=O)O [threonine]	–	–	–	–	–
very strong incorporation	strongly inhibited	CC[C@H](C)[C@H](N)C(=O)O [isoleucine]	strong cis-inhibiting effect	significantly incorporated	incorporation into the oocytes was noted	strongly inhibited	–
significant incorporation	–	N[C@@H](CS)C(=O)O [cysteine]	strong cis-inhibiting effect	–	–	–	–
significant incorporation	–	NC(=O)C[C@H](N)C(=O)O [asparagine]	–	–	–	–	–
